Laboratory results reported in US10519114B2, “Peptidomimetics and methods of using the same” (The Regents of the University of Michigan, priority 2016, dated 2019).

Assays:
[1] = molecular target: T1, rat μ (C6-MOR) opioid receptor (Rattus norvegicus, UniProt P33535); assay: Radioligand binding assay, [3H]diprenorphine displacement, MOR; details: displacement of 0.2 nM [3H]diprenorphine, C6-MOR membranes; mean ± standard error
T1 construct: expressed in transfected cells
Summary of the method: (§1)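 C6-MOR/C6-DOR (rat) or CHO-KOR (human) membranes, 20 μg protein; 0.2 nM [3H]diprenorphine; 50 mM Tris-HCl pH 7.4; 1 h, RT; GF/C filtration, scintillation counting; NSB 10 μM naloxone; Ki by logistic fit, mean±SEM of ≥3 assays in duplicate.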

[2] = molecular target: T2, rat δ (C6-DOR) opioid receptor (Rattus norvegicus, UniProt P33533); assay: Radioligand binding assay, [3H]diprenorphine displacement, DOR; details: displacement of 0.2 nM [3H]diprenorphine, C6-DOR membranes; mean ± standard error
T2 construct: expressed in transfected cells
Summary of the method: as §1

[3] = molecular target: T3, human κ (CHO-KOR) opioid receptor (Homo sapiens, UniProt P41145); assay: Radioligand binding assay, [3H]diprenorphine displacement, KOR; details: displacement of 0.2 nM [3H]diprenorphine, CHO-KOR membranes; mean ± standard error
T3 construct: expressed in transfected cells
Summary of the method: as §1

[4] = molecular target: T1, rat μ (C6-MOR) opioid receptor; assay: Stimulation of [35S]GTPγS binding, MOR; type: biochemical
Summary of the method: (§2)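 Peptide-stimulated [35S]GTPγS (0.1 nM) binding, with 30 μM GDP, 5 mM MgCl2 and 100 mM NaCl at pH 7.4, was measured over 1 h at room temperature. Membranes came from rat MOR/DOR C6 or human KOR CHO cells. Filter-retained counts were expressed against 10 μM DAMGO, DPDPE or U69,593 respectively; maxima were fitted nonlinearly.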

[5] = molecular target: T2, rat δ (C6-DOR) opioid receptor; assay: Stimulation of [35S]GTPγS binding, DOR; type: biochemical; details: for EC50 (nm) DOR / EC50: [35S]GTPγS binding, C6-DOR membranes, mean ± standard error; for % stimulation DOR / Emax: [35S]GTPγS maximal stimulation compared with 10 μM standard DPDPE
Summary of the method: as §2

[6] = molecular target: T3, human κ (CHO-KOR) opioid receptor; assay: Stimulation of [35S]GTPγS binding, KOR; type: biochemical; details: for EC50 (nm) KOR / EC50: [35S]GTPγS binding, CHO-KOR membranes, mean ± standard error; for % stimulation KOR / Emax: [35S]GTPγS maximal stimulation compared with 10 μM standard U-69,593
Summary of the method: as §2

[7] = [35S]GTPγS binding, C6-MOR membranes, mean ± standard error
[8] = [35S]GTPγS maximal stimulation compared with 10 μM standard DAMGO

T1 sequence (P33535 whole entry): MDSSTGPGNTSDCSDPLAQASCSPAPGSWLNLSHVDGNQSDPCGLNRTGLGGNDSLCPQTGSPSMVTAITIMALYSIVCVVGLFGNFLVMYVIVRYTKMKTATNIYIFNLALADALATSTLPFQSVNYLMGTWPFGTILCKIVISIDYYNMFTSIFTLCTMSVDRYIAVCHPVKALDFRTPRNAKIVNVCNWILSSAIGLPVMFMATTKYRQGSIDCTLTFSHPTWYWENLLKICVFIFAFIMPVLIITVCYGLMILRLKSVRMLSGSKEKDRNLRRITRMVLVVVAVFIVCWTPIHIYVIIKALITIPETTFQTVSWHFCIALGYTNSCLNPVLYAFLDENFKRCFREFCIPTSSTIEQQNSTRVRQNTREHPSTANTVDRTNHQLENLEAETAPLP
T2 sequence (P33533 whole entry): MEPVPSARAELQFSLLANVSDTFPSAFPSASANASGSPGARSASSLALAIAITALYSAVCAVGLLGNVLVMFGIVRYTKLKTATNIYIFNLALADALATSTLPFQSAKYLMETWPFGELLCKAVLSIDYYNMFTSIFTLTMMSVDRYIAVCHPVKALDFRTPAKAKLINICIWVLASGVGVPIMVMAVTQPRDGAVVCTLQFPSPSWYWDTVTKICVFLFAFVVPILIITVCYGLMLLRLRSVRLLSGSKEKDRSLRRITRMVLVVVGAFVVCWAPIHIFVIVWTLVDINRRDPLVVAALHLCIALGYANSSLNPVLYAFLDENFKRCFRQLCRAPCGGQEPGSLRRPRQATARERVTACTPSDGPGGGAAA
T3 sequence (P41145 whole entry): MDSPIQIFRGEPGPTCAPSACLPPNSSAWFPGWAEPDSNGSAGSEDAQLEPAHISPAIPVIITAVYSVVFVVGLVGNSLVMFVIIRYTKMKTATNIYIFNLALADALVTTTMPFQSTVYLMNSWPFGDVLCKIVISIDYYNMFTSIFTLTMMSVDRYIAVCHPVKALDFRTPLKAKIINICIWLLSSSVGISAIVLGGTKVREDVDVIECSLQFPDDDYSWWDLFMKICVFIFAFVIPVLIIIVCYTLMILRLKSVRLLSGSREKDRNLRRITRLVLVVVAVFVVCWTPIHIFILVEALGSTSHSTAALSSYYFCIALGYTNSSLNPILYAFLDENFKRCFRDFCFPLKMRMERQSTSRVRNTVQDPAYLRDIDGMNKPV

Structure (SMILES)	Ki [1] [nM]	Ki [2] [nM]	Ki [3] [nM]	EC50 [4, 7] [nM]	Emax [4, 8] [%]	EC50 (nm) DOR [5]	% stimulation DOR [5]	EC50 (nm) KOR [6]	% stimulation KOR [6]	EC50 [6] [nM]	Emax [6] [%]	EC50 [5] [nM]	Emax [5] [%]	EC50 (nm) MOR [4, 7]	% stimulation MOR [4, 8]
Cc1cc(O)cc(C)c1C[C@H](N)C(=O)N[C@@H]1CCNc2ccc(CN3CCC[C@H]4CCCC[C@@H]43)cc21 [Compound 1051]	0.18 ± 0.03	9.5 ± 1.22	7.03 ± 1.36	1.22 ± 0.07	36.2 ± 8.14	dns	dns	dns	dns						
Cc1cc(O)cc(C)c1C[C@H](N)C(=O)N[C@@H]1CCNc2ccc(S(=O)(=O)c3ccccc3)cc21 [Compound 1052]	3.01 ± 1.87	2.92 ± 0.41	26 ± 7.12	12.9 ± 1.35	68.9 ± 10.3	dns	dns			1310	38.5				
Cc1cc(O)cc(C)c1C[C@H](N)C(=O)N[C@@H]1CCNc2ccc(Sc3ccccc3)cc21 [Compound 1053]	0.45 ± 0.11	5.08 ± 0.52	10.8 ± 6.24	4.67 ± 1.44	51.6 ± 6.43	dns	dns			1120	22.4				
Cc1cc(O)cc(C)c1C[C@H](N)C(=O)N[C@@H]1CCNc2ccc(CN3CCc4ccc(F)cc4C3)cc21 [Compound 1054]	0.17 ± 0.02	16.7 ± 2.47	9.63 ± 0.4	0.5 ± 0.05	105 ± 4.56		dns		dns	108		25.9 ± 16.9			
CC(=O)N1CC[C@@H](NC(=O)[C@@H](N)Cc2c(C)cc(O)cc2C)c2cc(Cc3ccccc3)cc(C)c21 [Compound 1055]	0.18 ± 0.04	1.88 ± 0.53	80 ± 20	7.05 ± 2.32	86 ± 3					930 ± 600	32 ± 2	384 ± 296	30 ± 3		
Cc1cc(O)cc(C)c1C[C@H](N)C(=O)N[C@@H]1CCNc2ccc(CN3CCC4(CCCCC4)CC3)cc21 [Compound 1060]	0.22 ± 0.1	36.5 ± 18.9	2.44 ± 0.99			dns	dns			92.1 ± 15.5	71.6 ± 4.38			dns	dns
Cc1cc(O)cc(C)c1C[C@H](N)C(=O)N[C@@H]1CCNc2ccc(CN3CCc4cccc(C(F)(F)F)c4C3)cc21 [Compound 1061]	0.17 ± 0.03	13.6 ± 1.27	48.5 ± 17.5	8.88 ± 2.71	37.8 ± 2.55	dns	dns	dns	dns						
CC(=O)N1CC[C@@H](NC(=O)[C@@H](N)Cc2c(C)cc(O)cc2C)c2cc(CN3CCc4ccc(F)cc4C3)ccc21 [Compound 1062]	0.05 ± 0.01	0.77 ± 0.23	16.2 ± 7.94	23.7 ± 26.7	99.6 ± 1.92	dns	dns			234 ± 70.1	34.2 ± 8.24				
COc1cc(Cc2ccccc2)cc2c1NCC[C@H]2NC(=O)[C@@H](N)Cc1c(C)cc(O)cc1C [Compound 1063]	0.24 ± 0.11	3.08 ± 1	29.9 ± 10.4	2.5 ± 0.45	84.1 ± 0.96			dns	dns			63.3 ± 12.2	50.8 ± 9.61		
Cc1cc(O)cc(C)c1C[C@H](N)C(=O)N[C@@H]1CCNc2ccc(Cc3cc4ccccc4o3)cc21 [Compound 1065]	0.11 ± 0.03	4.76 ± 1.9	41.4 ± 22.4	1.14 ± 0.49	97.9 ± 1.43	dns		dns	dns				13.9		
CC(=O)N1CC[C@@H](NC(=O)[C@@H](N)Cc2c(C)cc(O)cc2C)c2cc(CN3CCc4cccc(C(F)(F)F)c4C3)ccc21 [Compound 1066]	0.16 ± 0.01	3.05 ± 0.88	59.2 ± 12.4	1.25 ± 0.44	55.1 ± 2.83	dns	dns	dns	dns						
CC(=O)N1CC[C@@H](NC(=O)[C@@H](N)Cc2c(C)cc(O)cc2C)c2cc(-c3ccccc3)ccc21 [Compound 1067]	0.88 ± 0.4	1.32 ± 0.37	35.8 ± 16.8	5.64 ± 0.35	51.3 ± 8.48					291 ± 32.5	69.1 ± 5.04	1520 ± 889	37.4 ± 6.31		
Cc1cc(O)cc(C)c1C[C@H](N)C(=O)N[C@@H]1CCNc2ccc(-c3ccccc3)cc21 [Compound 1068]	1.11 ± 0.44	13.4 ± 4.32	165 ± 110	11.8 ± 5.77	23.7 ± 5.88	dns	dns			933 ± 219	57.1 ± 2.63				
Cc1cc(O)cc(C)c1C[C@H](N)C(=O)N[C@@H]1CCN2CCCc3cc(Cc4ccccc4)cc1c32 [Compound 1069]	0.39 ± 0.14	2.26 ± 0.8	6.62 ± 2.57	1.12 ± 0.52	95.2 ± 3.99					1000	78.4	570 ± 298	50.4 ± 13.7		
COc1cc(Cc2ccccc2)cc2c1N(C(C)=O)CC[C@H]2NC(=O)[C@@H](N)Cc1c(C)cc(O)cc1C [Compound 1076]	0.14 ± 0.01	2.16 ± 1.15	44.8 ± 16.9	0.78 ± 0.2	95.8 ± 10.2					1480 ± 639	16.1 ± 5.54	4.62 ± 1.9	44.6 ± 3.75		
Cc1cc(O)cc(C)c1C[C@H](N)C(=O)N[C@H]1c2cc(Cc3ccccc3)ccc2NC[C@H]1C [Compound 1078]	0.75 ± 0.03	2.02 ± 0.21	17.7 ± 2.24	3.14 ± 1.51	80.2 ± 7.89					900 ± 326	26.4 ± 5.75	30.9	21.4		
Cc1cc(O)cc(C)c1C[C@H](N)C(=O)N[C@@H]1CCNc2c(-c3cc4ccccc4o3)cc(Cc3ccccc3)cc21 [Compound 1095]	3.14 ± 1	71 ± 17	800 ± 115	15.6 ± 6.86	100 ± 2.48	dns	dns	dns	dns						
Cc1cc(O)cc(C)c1C[C@H](N)C(=O)N[C@@H]1CCNc2c(CN3CCN(C(=O)[C@@H](N)Cc4c(C)cc(O)cc4C)CC3)cc(Cc3ccccc3)cc21 [Compound 1096]	0.31 ± 0.16	2.56 ± 0.53	7.17 ± 2.38	5.89 ± 0.68	86 ± 8	dns	dns	dns	dns						
